Data taken from patent US20240158385A1, “NOVEL COMPOUNDS” (Cerevance, Inc., priority 2021, published 2024).

target: T1, human KCNK13 (Homo sapiens, UniProt Q9HB14); experiment: KCNK13 antagonist activity, thallium (Tl+) flux FLIPR assay; assay type: cell-based; conditions: not given
T1 construct: expressed in transfected cells
T1 sequence (Q9HB14 1-408): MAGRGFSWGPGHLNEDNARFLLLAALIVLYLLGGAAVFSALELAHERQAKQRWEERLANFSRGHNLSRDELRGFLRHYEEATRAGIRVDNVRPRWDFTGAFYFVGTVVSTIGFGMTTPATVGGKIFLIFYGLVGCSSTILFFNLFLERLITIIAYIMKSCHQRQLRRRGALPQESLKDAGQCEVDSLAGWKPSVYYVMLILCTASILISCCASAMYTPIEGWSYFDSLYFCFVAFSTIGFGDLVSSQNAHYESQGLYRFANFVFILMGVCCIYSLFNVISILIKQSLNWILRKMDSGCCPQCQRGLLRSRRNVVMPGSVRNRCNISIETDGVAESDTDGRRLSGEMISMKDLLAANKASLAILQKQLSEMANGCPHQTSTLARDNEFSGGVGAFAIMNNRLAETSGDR
Method: KCNK13 antagonist activity was determined by measuring changes in intracellular Thallium (Tl^+) concentrations using a Tl^+ sensitive fluorescent dye. The changes in fluorescent signal were monitored by Fluorescent Imaging Plate Reader (FLIPR™) technology available from Molecular Devices, LLC, US. KCNK13 mediated increases in intracellular Tl+concentration were readily detected by addition of a thallium sulfate stimulus. 24 hours prior to the assay, human embryonic kidney 293 cells (HEK 293 cells) stably expressing human KCNK13 were seeded in cell culture medium in PDL coated black, clear-bottom 384-well plates (commercially available from Corning Inc., 356663) and grown overnight at 37° C., 5% CO2. On the day of the assay, cell culture media was removed and cells were loaded with potassium dye (commercially sold by Molecular Devices, LLC, US, R8222) for 1 hour at room temperature in the dark. Test compounds (at 10 point half log concentration response curves from […]) were added to cells for 15 minutes prior to the addition of thallium sulfate to all wells. The IC50 values were determined from ten point concentration response curves. Curves were generated using the average of two wells for each data point.

Row | Structure (SMILES) | IC50 [µM]
1 | Nc1nonc1-c1nc2cccnc2n1Cc1cncnc1 [Example 15, 4-[3-(pyrimidin-5-ylmethyl)imidazo[4,5-b]pyridin-2-yl]-1,2,5-oxadiazol-3-amine] | < 0.2

same assay, conditions: HEK 293 cells stably expressing human KCNK13; Tl+ sensitive dye, FLIPR; compounds 15 minutes prior to thallium sulfate; 10 point half log curves from 10 PM; read-out: hKCNK13 IC50

Row | IC50 [µM] | Structure (SMILES)
2 | < 0.2 | Nc1nsnc1-c1nc2c(F)cccc2n1Cc1cccnn1 (single isomer, unassigned) [Example 157, 4-(4-fluoro-1-(pyridazin-3-ylmethyl)-benzimidazol-2-yl)-1,2,5-thiadiazol-3-amine]
3 | < 0.05 | Nc1nonc1-c1nc2ccc(F)c(F)c2n1Cc1cccnn1 (single isomer, unassigned) [Example 162, 4-(6,7-difluoro-1-(pyridazin-3-ylmethyl)-benzimidazol-2-yl)-1,2,5-oxadiazol-3-amine]
4 | < 0.2 | Nc1nonc1-c1nc2c(F)c(F)ccc2n1Cc1cccnn1 (single isomer, unassigned) [Example 163, 4-(4,5-difluoro-1-(pyridazin-3-ylmethyl)-benzimidazol-2-yl)-1,2,5-oxadiazol-3-amine]
5 | < 0.1 | Nc1nonc1-c1nc2cccc(F)c2n1Cc1ccc(C(F)(F)F)nn1 (single isomer, unassigned) [Example 166, 4-(7-fluoro-1-((6-(trifluoromethyl)pyridazin-3-yl)methyl)-benzimidazol-2-yl)-1,2,5-oxadiazol-3-amine]
6 | < 1 | Nc1nonc1-c1nc2c(F)cccc2n1Cc1ccc(C(F)(F)F)nn1 (single isomer, unassigned) [Example 167, 4-(4-fluoro-1-((6-(trifluoromethyl)pyridazin-3-yl)methyl)-benzimidazol-2-yl)-1,2,5-oxadiazol-3-amine]
7 | < 0.05 | Cc1ccc(Cn2c(-c3nonc3N)nc3cccc(F)c32)nn1 (single isomer, unassigned) [Example 168, 4-(7-fluoro-1-((6-methylpyridazin-3-yl)methyl)-benzimidazol-2-yl)-1,2,5-oxadiazol-3-amine]
8 | < 0.2 | Cc1ccc(Cn2c(-c3nonc3N)nc3c(F)cccc32)nn1 (single isomer, unassigned) [Example 169, 4-(4-fluoro-1-((6-methylpyridazin-3-yl)methyl)-benzimidazol-2-yl)-1,2,5-oxadiazol-3-amine]
9 | < 0.1 | Cc1nonc1-c1nc2ccc(F)c(F)c2n1Cc1cccnn1 (single isomer, unassigned) [Example 170, 3-(6,7-difluoro-1-(pyridazin-3-ylmethyl)-benzimidazol-2-yl)-4-methyl-1,2,5-oxadiazole]
10 | < 0.5 | Cc1nonc1-c1nc2c(F)c(F)ccc2n1Cc1cccnn1 (single isomer, unassigned) [Example 171, 3-(4,5-difluoro-1-(pyridazin-3-ylmethyl)-benzimidazol-2-yl)-4-methyl-1,2,5-oxadiazole]
11 | < 0.2 | Nc1nonc1-c1nc2cccc(F)c2n1Cc1ccc(C(F)F)nn1 (single isomer, unassigned) [Example 172, 4-(1-((6-(difluoromethyl)pyridazin-3-yl)methyl)-7-fluoro-benzimidazol-2-yl)-1,2,5-oxadiazol-3-amine]
12 | < 0.5 | Nc1nonc1-c1nc2c(F)cccc2n1Cc1ccc(C(F)F)nn1 (single isomer, unassigned) [Example 173, 4-(1-((6-(difluoromethyl)pyridazin-3-yl)methyl)-4-fluoro-benzimidazol-2-yl)-1,2,5-oxadiazol-3-amine]
13 | < 0.1 | N#Cc1ccc(Cn2c(-c3nonc3N)nc3cccc(F)c32)nn1 (single isomer, unassigned) [Example 174, 6-((2-(4-amino-1,2,5-oxadiazol-3-yl)-7-fluoro-benzimidazol-1-yl)methyl)pyridazine-3-carbonitrile]
14 | < 0.2 | N#Cc1ccc(Cn2c(-c3nonc3N)nc3c(F)cccc32)nn1 (single isomer, unassigned) [Example 175, 6-((2-(4-amino-1,2,5-oxadiazol-3-yl)-4-fluoro-benzimidazol-1-yl)methyl)pyridazine-3-carbonitrile]
15 | < 0.1 | COc1cc(Cn2c(-c3nonc3N)nc3cccc(F)c32)ccn1 (single isomer, unassigned) [Example 183, 4-(7-fluoro-1-((2-methoxypyridin-4-yl)methyl)-benzimidazol-2-yl)-1,2,5-oxadiazol-3-amine]
16 | < 0.1 | COc1cc(Cn2c(-c3nonc3N)nc3c(F)cccc32)ccn1 (single isomer, unassigned) [Example 184, 4-(4-fluoro-1-((2-methoxypyridin-4-yl)methyl)-benzimidazol-2-yl)-1,2,5-oxadiazol-3-amine]
17 | < 0.5 | Nc1nonc1-c1nc2cncc(F)c2n1Cc1cccnn1 (single isomer, unassigned) [Example 187, 4-(7-fluoro-1-(pyridazin-3-ylmethyl)-1H-imidazo[4,5-c]pyridin-2-yl)-1,2,5-oxadiazol-3-amine]

Row | IC50 [µM] | Structure (SMILES)
18 | < 5 | Nc1nonc1-c1nc2c(F)cncc2n1Cc1cccnn1 (single isomer, unassigned) [Example 188, 4-(7-fluoro-3-(pyridazin-3-ylmethyl)-3H-imidazo[4,5-c]pyridin-2-yl)-1,2,5-oxadiazol-3-amine]
19 | < 0.1 | Cc1nonc1-c1nc2ccc(F)c(F)c2n1Cc1cnc(C#N)nc1 [Example 1, 5-[[6,7-difluoro-2-(4-methyl-1,2,5-oxadiazol-3-yl)benzimidazol-1-yl]methyl]pyrimidine-2-carbonitrile]
20 | < 0.05 | N#Cc1ncc(Cn2c(-c3nonc3N)nc3ccc(F)c(F)c32)cn1 [Example 2, 5-[[2-(4-amino-1,2,5-oxadiazol-3-yl)-6,7-difluoro-benzimidazol-1-yl]methyl]pyrimidine-2-carbonitrile]
21 | < 0.05 | Nc1nonc1-c1nc2cccc(F)c2n1Cc1cncnc1 [Example 3, 4-[7-fluoro-1-(pyrimidin-5-ylmethyl)benzimidazol-2-yl]-1,2,5-oxadiazol-3-amine]
22 | < 0.1 | Nc1nonc1-c1nc2cccc(F)c2n1Cc1cccnn1 [Example 6, 4-[7-fluoro-1-(pyridazin-3-ylmethyl)benzimidazol-2-yl]-1,2,5-oxadiazol-3-amine]
23 | < 0.1 | Cc1nonc1-c1nc2ccc(F)c(F)c2n1Cc1cncnc1 [Example 7, 3-[6,7-difluoro-1-(pyrimidin-5-ylmethyl)benzimidazol-2-yl]-4-methyl-1,2,5-oxadiazole]
24 | < 0.1 | N#Cc1ccc(Cn2c(-c3nonc3N)nc3c(F)cccc32)cn1 [Example 8, 5-[[2-(4-amino-1,2,5-oxadiazol-3-yl)-4-fluoro-benzimidazol-1-yl]methyl]pyridine-2-carbonitrile]
25 | < 0.1 | Cc1nonc1-c1nc2c(F)cccc2n1Cc1cncnc1 [Example 9, 3-[4-fluoro-1-(pyrimidin-5-ylmethyl)benzimidazol-2-yl]-4-methyl-1,2,5-oxadiazole]
26 | < 0.1 | COc1ccc(Cn2c(-c3nonc3N)nc3cccc(F)c32)cn1 [Example 10, 4-[7-fluoro-1-[(6-methoxypyridin-3-yl)methyl]benzimidazol-2-yl]-1,2,5-oxadiazol-3-amine]
27 | < 0.2 | N#Cc1ncc(Cn2c(-c3nonc3N)nc3cccnc32)cn1 [Example 11, 5-[[2-(4-amino-1,2,5-oxadiazol-3-yl)imidazo[4,5-b]pyridin-3-yl]methyl]pyrimidine-2-carbonitrile]
28 | < 0.2 | Nc1nonc1-c1nc2cc(F)cnc2n1Cc1cncnc1 [Example 12, 4-[6-fluoro-3-(pyrimidin-5-ylmethyl)imidazo[4,5-b]pyridin-2-yl]-1,2,5-oxadiazol-3-amine]
29 | < 0.2 | COc1ccc(Cn2c(-c3nonc3N)nc3cccnc32)cn1 [Example 14, 4-[3-[(6-methoxypyridin-3-yl)methyl]imidazo[4,5-b]pyridin-2-yl]-1,2,5-oxadiazol-3-amine]
30 | < 0.2 | COc1ccc(Cn2c(-c3nonc3C)nc3cccnc32)cn1 [Example 16, 3-[3-[(6-methoxypyridin-3-yl)methyl]imidazo[4,5-b]pyridin-2-yl]-4-methyl-1,2,5-oxadiazole]
31 | < 0.5 | Cc1nonc1-c1nc2cccnc2n1Cc1ccc(C(F)(F)F)nc1 [Example 17, 3-methyl-4-[3-[[6-(trifluoromethyl)pyridin-3-yl]methyl]imidazo[4,5-b]pyridin-2-yl]-1,2,5-oxadiazole]
32 | < 0.5 | Cc1nonc1-c1nc2cccnc2n1Cc1ccc(C#N)nn1 [Example 18, 6-[[2-(4-methyl-1,2,5-oxadiazol-3-yl)imidazo[4,5-b]pyridin-3-yl]methyl]pyridazine-3-carbonitrile]

Row | Structure (SMILES) | IC50 [µM]
33 | Cc1nonc1-c1nc2cccnc2n1Cc1cncnc1 [Example 13, 3-methyl-4-[3-(pyrimidin-5-ylmethyl)imidazo[4,5-b]pyridin-2-yl]-1,2,5-oxadiazole] | < 0.2
